Laboratory results taken from patent US20110306568A1, “COMPOSITION CONTAINING GLUCOSYLGLYCEROL” (priority 2008, published 2011).

Columns and labels:
Type in all cases: cell-based
[1] = test system: E. coli DSM 1576; test: Viable count of E. coli DSM 1576 in aqueous glucosylglycerol solutions with 5% w/w glucose; settings: for Colony-forming units (CFU/g): 5% w/w glucose, aqueous
[2] = test system: Aspergillus niger; test: Viable count of mold Aspergillus niger in aqueous glucosylglycerol solution with 3.5% w/w glucose; settings: A. niger; for Colony-forming units (CFU/g): 50% w/w glucosylglycerol, 3.5% w/w glucose, aqueous
Description: (§1) In addition, a another test was analogously conducted with mold Aspergillus niger and yeast fungi Candida albicans , with an aqueous solution containing 50% w/w of 2-O-α-D glucosylglycerol and 3.5% w/w of glucose being used in this case.

[3] = test system: Candida albicans; test: Viable count of yeast fungi Candida albicans in aqueous glucosylglycerol solution with 3.5% w/w glucose; settings: C. albicans; for Colony-forming units (CFU/g): 50% w/w glucosylglycerol, 3.5% w/w glucose, aqueous
Description: as §1

[4] = glucosylglycerol of high concentration

OCC(CO)O[C@H]1O[C@H](CO)[C@@H](O)[C@H](O)[C@H]1O [Glucosylglycerol, 2-O-α-D-glucosylglycerol]
Colony-forming units (CFU/g) ([1]; 20% w/w glucosylglycerol, 0 days): 300,000 CFU/g | Colony-forming units (CFU/g) ([1]; 20% w/w glucosylglycerol, 2 days): 280,000 CFU/g | Colony-forming units (CFU/g) ([1]; 20% w/w glucosylglycerol, 7 days): 100,000 CFU/g | Colony-forming units (CFU/g) ([1]; 20% w/w glucosylglycerol, 14 days): 5,000 CFU/g | Colony-forming units (CFU/g) ([1]; 20% w/w glucosylglycerol, 21 days): <100 CFU/g | Colony-forming units (CFU/g) ([1]; 20% w/w glucosylglycerol, 28 days): <100 CFU/g | Colony-forming units (CFU/g) ([1]; 30% w/w glucosylglycerol, 0 days): 300,000 CFU/g | Colony-forming units (CFU/g) ([1]; 30% w/w glucosylglycerol, 2 days): 130,000 CFU/g | Colony-forming units (CFU/g) ([1]; 30% w/w glucosylglycerol, 7 days): <1,000 CFU/g | Colony-forming units (CFU/g) ([1]; 30% w/w glucosylglycerol, 14 days): <100 CFU/g | Colony-forming units (CFU/g) ([1]; 30% w/w glucosylglycerol, 21 days): <100 CFU/g | Colony-forming units (CFU/g) ([1]; 30% w/w glucosylglycerol, 28 days): <100 CFU/g | Colony-forming units (CFU/g) ([1]; 50% w/w glucosylglycerol, 0 days): 300,000 CFU/g | Colony-forming units (CFU/g) ([1]; 50% w/w glucosylglycerol, 2 days): 150,000 CFU/g | Colony-forming units (CFU/g) ([1]; 50% w/w glucosylglycerol, 7 days): <1,000 CFU/g | Colony-forming units (CFU/g) ([1]; 50% w/w glucosylglycerol, 14 days): <100 CFU/g | Colony-forming units (CFU/g) ([1]; 50% w/w glucosylglycerol, 21 days): <100 CFU/g | Colony-forming units (CFU/g) ([1]; 50% w/w glucosylglycerol, 28 days): <100 CFU/g | bactericidal effect [1, 4]: highly bactericidal effects | Colony-forming units (CFU/g) ([2]; 0 days): 750,000 CFU/g | Colony-forming units (CFU/g) ([2]; 2 days): 350,000 CFU/g | Colony-forming units (CFU/g) ([2]; 7 days): 200,000 CFU/g | Colony-forming units (CFU/g) ([2]; 14 days): 170,000 CFU/g | Colony-forming units (CFU/g) ([2]; 21 days): 160,000 CFU/g | Colony-forming units (CFU/g) ([2]; 28 days): 12,000 CFU/g | fungicidal effect [2, 4]: fungicidal effects | Colony-forming units (CFU/g) ([3]; 0 days): 750,000 CFU/g | Colony-forming units (CFU/g) ([3]; 2 days): 320,000 CFU/g | Colony-forming units (CFU/g) ([3]; 7 days): 200,000 CFU/g | Colony-forming units (CFU/g) ([3]; 14 days): 190,000 CFU/g | Colony-forming units (CFU/g) ([3]; 21 days): 120,000 CFU/g | Colony-forming units (CFU/g) ([3]; 28 days): 45,000 CFU/g | fungicidal effect [3, 4]: fungicidal effects
